Assay [1] deals with T1, TrkA (Homo sapiens (Human), UniProt P04629). In words: Measurement of TrkA enzyme-inhibiting activity (LanthaScreen TR-FRET kinase assay). The assay is classed as biochemical. As to conditions: final ATP 150 μM, read-out: TrkA inhibitory activity (IC50; μM). As for the experimental part:
TrkA-inhibiting activity was measured according to the following method using LanthaScreen™ kinase assay reagents (Invitrogen; Fluorescein-Poly GT, LanthaScreen™ Tb-PY20 and TR-FRET Dilution Buffer), TrkA (Invitrogen), ATP (Sigma-Aldrich), a kinase reaction buffer (50 mM HEPES buffer (Sigma-Aldrich) (pH 7.5) containing 0.01% Brij35 (Sigma-Aldrich), 10 mM MgCl2 (Sigma-Aldrich) and 1 mM EGTA (Sigma-Aldrich)) and 0.5 M EDTA (pH 8.0) (Invitrogen).
The present compound was dissolved in dimethylsulfoxide (hereinafter abbreviated as DMSO) to prepare a 10 mM solution. The test compound at 10 mM was distributed into a 96-well plate and serially diluted with DMSO with the geometrical ratio of 3. The serial dilutions (DMSO solutions) were diluted with the kinase reaction buffer to 20-fold to prepare solutions of the present compound with 5-times concentrations (DMSO concentration: 5%). TrkA was diluted with the kinase reaction buffer to prepare a solution at 38.5 ng/mL (enzyme solution). Adenosine triphosphate (hereinafter abbreviated as ATP) was preliminarily diluted in distilled water to prepare a 10 mM solution which was then divided into containers and stored at −20° C. The 10 mM ATP solution and Fluorescein-Poly GT were diluted in the kinase reaction buffer to prepare a solution containing […] of ATP and 500 nM of Fluorescein-Poly GT (ATP-substrate solution). EDTA (0.5 M; pH 8.0) and LanthaScreen™ Tb-PY20 were diluted in the TR-FRET Dilution Buffer to prepare a solution containing 20 mM of EDTA and 4 nM of LanthaScreen™ Tb-PY20 (detection buffer).
The solutions of the present compound (5 μL/well) and the enzyme solution (10 μL/well) were added to a 96-half well assay plate and the plate was shaken at room temperature for 10 minutes on a plate shaker (IKA™ MTS2/4 digital microplate, IKA Japan K.K.). As a control and a blank, the kinase reaction buffer containing 5% DMSO (5 μL/well) was added in place of the solution of the present compound. As a blank, the kinase reaction buffer (10 μL/well) was added in the place of the enzyme solution. The ATP-substrate solution (10 μL/well) was then added to the plate to initiate kinase reaction and the plate was shaken in the dark at room temperature for 1 hour on the plate shaker (final concentration of TrkA: 15.4 ng/mL, final concentration of the substrate: 200 nM and final concentration of ATP: 150 μM). Kinase reaction was terminated by adding the detection buffer (25 μL/well) to the plate and the plate was shaken in the dark at room temperature for 30 minutes on the plate shaker. On an Analyst GT (Molecular Devices Japan, K.K.) the wells were irradiated with excitation light at 340 nm and the fluorescence intensities at 520 nm and 495 nm were measured. The fluorescence intensity at 520 nm for each well was divided by the fluorescence intensity at 495 nm to calculate the time resolved fluorescence resonance energy transfer (TR-FRET) ratio.
The inhibition rate (%) of the present compound was calculated according to the following Equation 1: Inhibition rate (%)={1−(AX−AB)/(AC−AB)×100 Equation 1
wherein AX: the TR-FRET ratio when the present compound is added;
AB: the TR-FRET of the blank; and
AC: the TR-FRET of the control.
The value for 50% inhibition by the present compound (IC50 value) was calculated from the inhibition curve based on the inhibition rate of the present compound at respective concentrations.
(In TR-FRET formats the signal depends on donor and acceptor labels being close together.)

Assay [2] concerns the target T1, TrkA. In words: TrkA kinase-inhibiting activity using human TrkA expressing cells (CellSenser TrkA-NFAT-bla CHO-K1, NGF-stimulated reporter assay). In kind it is cell-based. As to conditions: CHO-K1 cells expressing human TrkA and NFAT-bla; NGF 50 ng/ml; read-out: TrkA inhibitory activity (IC50; μM). As for the experimental part: TrkA kinase-inhibiting activity in cell systems was measured using CHO-K1 cells expressing human TrkA and NFAT-bla (CellSenser™ TrkA-NFAT-bla CHO-K1 cells, Invitrogen).
On the day before the assay, CellSenser™ TrkA-NFAT-bla CHO-K1 cells were suspended in an assay medium (Opti-MEM1 Reduced Serum Medium (Invitrogen) containing 0.5% dialysed fetal bovine serum (Invitrogen), 0.1 mM nonessential amino acids (Invitrogen), 1 mM sodium pyruvate (Invitrogen) and antibiotics (100 U/mL penicillin and 100 μg/mL streptomycin (Invitrogen)) and plated at a density of 2.4×10^4 cells/40 μL/well in a 96-well clear bottom plate (Corning, Catalogue No.: 3882). In some wells were added only the assay medium at 40 μL/well (Cell-free). On the day of the assay, 10 mM of the present compound (DMSO solution) was distributed in a 96-well plate (Costar, Catalogue No.: 3363) and serially diluted with DMSO with the geometrical ratio of 3. The serial dilutions were diluted with the assay medium to 100-fold to prepare a solution of the present compound with a 10-times concentration (DMSO concentration: 1%). To the plate where cells were plated was added the present compound at 5 μL/well and the plate was incubated in a CO2 incubator with 5% CO2, 95% Air at 37° C. for 30 minutes. For a control and a blank, the assay medium containing 1% DMSO was added at 5 μL/well in place of the solution of the present compound. Subsequently the assay medium containing NGF (Mouse 2.5s, Natural, Invitrogen) was added to the plate at 5 µL/well (final concentration of NGF: 50 ng/ml) and the plate was incubated in a CO2 incubator with 5% CO2, 95% Air at 37° C. for 5 hours. For a group of blanks, the assay medium was added in place of NGF at 5 μL/well. A reporter assay detection reagent (10 μL/well) was added to the plate and the plate was then incubated in the dark at room temperature for 120 minutes. The reporter assay detection reagent was prepared from LiveBLAzer™-FRET B/G Loading Kit (Invitrogen). On an Analyst GT (Molecular Devices Japan, K.K.) the wells were irradiated with excitation light at 405 nm and the fluorescence intensities at 460 nm and 530 nm were measured. The time resolved fluorescence resonance energy transfer (TR-FRET) ratio of each well was calculated according to the following Equation 2. TR-FRET Ratio=(A460X−A460F)/(A530X−A530F) Equation 2
wherein A460X: the fluorescence intensity at 460 nm of the present compound, control or blank;
A460F: the fluorescence intensity at 460 nm of the Cell-free;
A530X: the fluorescence intensity at 530 nm of the present compound, control or blank; and
A530F: the fluorescence intensity at 530 nm of the Cell-free. […]
The IC50 value of the present compound was calculated from the inhibition curve based on the inhibition rate of the present compound at respective concentrations.
In general terms: In a reporter assay the amount or activity of a reporter protein is the signal.

Six compounds from US9242977B2, “Trk-inhibiting compound” (ONO PHARMACEUTICAL CO., LTD., priority 2012, dated 2016) can be followed below.

T1 sequence (P04629 33-796): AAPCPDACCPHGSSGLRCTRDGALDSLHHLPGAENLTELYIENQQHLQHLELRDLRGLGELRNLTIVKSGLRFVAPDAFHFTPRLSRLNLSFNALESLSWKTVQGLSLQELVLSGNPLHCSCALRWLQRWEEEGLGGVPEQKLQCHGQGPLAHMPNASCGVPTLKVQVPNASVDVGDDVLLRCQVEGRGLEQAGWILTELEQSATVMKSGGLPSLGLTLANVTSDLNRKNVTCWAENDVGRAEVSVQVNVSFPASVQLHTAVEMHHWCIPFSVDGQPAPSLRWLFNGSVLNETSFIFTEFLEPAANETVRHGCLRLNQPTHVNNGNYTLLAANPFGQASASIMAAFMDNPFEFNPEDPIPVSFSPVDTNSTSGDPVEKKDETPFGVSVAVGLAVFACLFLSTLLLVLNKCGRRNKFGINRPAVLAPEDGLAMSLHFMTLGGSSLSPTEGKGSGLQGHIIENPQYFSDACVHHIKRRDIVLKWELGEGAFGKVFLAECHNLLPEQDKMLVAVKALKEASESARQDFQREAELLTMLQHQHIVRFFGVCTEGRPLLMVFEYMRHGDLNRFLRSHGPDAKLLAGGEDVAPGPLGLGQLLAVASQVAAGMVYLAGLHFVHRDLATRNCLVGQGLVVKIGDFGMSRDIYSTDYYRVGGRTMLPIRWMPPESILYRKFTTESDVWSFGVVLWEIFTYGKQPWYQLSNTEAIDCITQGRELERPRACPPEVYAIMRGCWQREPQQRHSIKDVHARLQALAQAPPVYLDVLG

By IC50 is commonly meant the concentration at which inhibition is half-maximal. Regarding `CCNc1ncc(-c2ccc(Oc3ncc(NC(=O)Nc4cc(C(F)(F)F)cnc4-c4ccc(C)cc4)cn3)cc2)s1` [Example 23, 1-(2-{4-[2-(ethylamino)-1,3-thiazol-5-yl]phenoxy}-5-pyrimidinyl)-3-[2-(4-methylphenyl)-5-(trifluoromethyl)-3-pyridinyl]urea], the figures for the IC50 at TrkA [1] and on TrkA [2] were 0.09 µM and 0.004 µM, respectively.

Consider `CCNc1ncc(-c2ccc(Oc3ccc(NC(=O)Nc4cc(C(F)(F)F)cnc4-c4ccc(C)c(C)c4)cn3)cc2)s1` [Example 34, 1-[2-(3,4-dimethylphenyl)-5-(trifluoromethyl)-3-pyridinyl]-3-(6-{4-[2-(ethylamino)-1,3-thiazol-5-yl]phenoxy}-3-pyridinyl)urea], for which the half-inhibitory concentration (IC50) amounted to 0.18 µM on TrkA [1] and 0.006 µM on TrkA [2].

With `O=C(Nc1cnc(Oc2ccc(-c3cnc(N4CCCC4=O)s3)cc2)nc1)Nc1cc(C(F)(F)F)cnc1-c1ccccc1` [Example 54, 1-(2-{4-[2-(2-oxo-1-pyrrolidinyl)-1,3-thiazol-5-yl]phenoxy}-5-pyrimidinyl)-3-[2-phenyl-5-(trifluoromethyl)-3-pyridinyl]urea], the results for the IC50 on TrkA [1] and on TrkA [2] were 0.04 µM and 0.004 µM, respectively.

`CCNc1ncc(-c2ccc(Oc3ncc(NC(=O)Nc4cc(C(F)(F)F)cnc4Oc4ccccc4)cn3)cc2)s1` [Example 48, 1-(2-{4-[2-(ethylamino)-1,3-thiazol-5-yl]phenoxy}-5-pyrimidinyl)-3-[2-phenoxy-5-(trifluoromethyl)-3-pyridinyl]urea]: the IC50 is 0.12 µM at TrkA [1] and 0.01 µM on TrkA [2].

As for `Cc1cccc(-c2ncc(C(F)(F)F)cc2NC(=O)Nc2cnc(Oc3ccc(-c4cnc(N5CCCC5=O)s4)cc3)nc2)c1` [Example 57, 1-[2-(3-methylphenyl)-5-(trifluoromethyl)-3-pyridinyl]-3-(2-{4-[2-(2-oxo-1-pyrrolidinyl)-1,3-thiazol-5-yl]phenoxy}-5-pyrimidinyl)urea], the results for the 50% inhibitory concentration (IC50) on TrkA [1] and on TrkA [2] were 0.03 µM and 0.003 µM, respectively.

Regarding `CCCNc1ncc(-c2ccc(Oc3ncc(NC(=O)Nc4cc(C(F)(F)F)ccc4Cl)cn3)cc2)s1` [Example 85-117, 1-[2-chloro-5-(trifluoromethyl)phenyl]-3-(2-{4-[2-(propylamino)-1,3-thiazol-5-yl]phenoxy}-5-pyrimidinyl)urea], the IC50 on TrkA [1] is 0.02 µM; on TrkA [2], 0.002 µM.
